Where two headings read alike, the source gives them in different places.

What all share (assay): KinomeScan kinase panel, single concentration 10 µM
Format in all cases: binding

Experiment [1] deals with T1, KinomeScan kinase panel (Homo sapiens, UniProt O60285).
T1 construct: purchased DiscoveRx (KinomeScan)
T1 sequence (O60285 1-661): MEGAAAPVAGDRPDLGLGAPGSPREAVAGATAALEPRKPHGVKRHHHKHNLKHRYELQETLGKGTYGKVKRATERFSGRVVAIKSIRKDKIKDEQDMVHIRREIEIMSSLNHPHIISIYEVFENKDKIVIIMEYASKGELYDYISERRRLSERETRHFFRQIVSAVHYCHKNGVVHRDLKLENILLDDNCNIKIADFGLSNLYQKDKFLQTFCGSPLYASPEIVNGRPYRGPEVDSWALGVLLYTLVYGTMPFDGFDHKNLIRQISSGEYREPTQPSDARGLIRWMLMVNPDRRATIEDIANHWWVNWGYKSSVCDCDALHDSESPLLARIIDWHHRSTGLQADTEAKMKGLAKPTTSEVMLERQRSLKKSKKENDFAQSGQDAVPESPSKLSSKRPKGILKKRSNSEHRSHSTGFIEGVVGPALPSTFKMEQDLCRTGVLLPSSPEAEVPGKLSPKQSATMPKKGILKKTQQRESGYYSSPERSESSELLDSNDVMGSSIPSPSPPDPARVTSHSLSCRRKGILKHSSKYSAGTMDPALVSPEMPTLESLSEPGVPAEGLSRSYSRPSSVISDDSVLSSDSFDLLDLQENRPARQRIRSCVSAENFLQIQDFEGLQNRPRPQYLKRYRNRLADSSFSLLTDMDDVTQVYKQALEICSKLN
Particulars: ARK5, 10 µM.

The target of experiment [2] is T2, KinomeScan kinase panel (Homo sapiens, UniProt Q15759).
T2 construct: purchased DiscoveRx (KinomeScan)
T2 sequence (Q15759 whole entry): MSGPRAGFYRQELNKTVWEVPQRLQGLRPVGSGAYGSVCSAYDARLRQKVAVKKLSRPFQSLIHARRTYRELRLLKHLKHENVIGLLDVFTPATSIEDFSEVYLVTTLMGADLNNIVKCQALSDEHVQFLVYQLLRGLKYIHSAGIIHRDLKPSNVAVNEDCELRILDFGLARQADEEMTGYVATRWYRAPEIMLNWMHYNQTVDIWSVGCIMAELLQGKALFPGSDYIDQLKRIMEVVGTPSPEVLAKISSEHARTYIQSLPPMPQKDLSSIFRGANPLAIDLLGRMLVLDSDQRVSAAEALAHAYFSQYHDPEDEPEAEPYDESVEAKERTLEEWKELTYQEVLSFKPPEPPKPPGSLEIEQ
Particulars: p38-beta, 10 µM; read-out: score (%).

Experiment [3] addresses T3, KinomeScan kinase panel (Homo sapiens, UniProt Q08881).
T3 construct: purchased DiscoveRx (KinomeScan)
T3 sequence (Q08881 1-620): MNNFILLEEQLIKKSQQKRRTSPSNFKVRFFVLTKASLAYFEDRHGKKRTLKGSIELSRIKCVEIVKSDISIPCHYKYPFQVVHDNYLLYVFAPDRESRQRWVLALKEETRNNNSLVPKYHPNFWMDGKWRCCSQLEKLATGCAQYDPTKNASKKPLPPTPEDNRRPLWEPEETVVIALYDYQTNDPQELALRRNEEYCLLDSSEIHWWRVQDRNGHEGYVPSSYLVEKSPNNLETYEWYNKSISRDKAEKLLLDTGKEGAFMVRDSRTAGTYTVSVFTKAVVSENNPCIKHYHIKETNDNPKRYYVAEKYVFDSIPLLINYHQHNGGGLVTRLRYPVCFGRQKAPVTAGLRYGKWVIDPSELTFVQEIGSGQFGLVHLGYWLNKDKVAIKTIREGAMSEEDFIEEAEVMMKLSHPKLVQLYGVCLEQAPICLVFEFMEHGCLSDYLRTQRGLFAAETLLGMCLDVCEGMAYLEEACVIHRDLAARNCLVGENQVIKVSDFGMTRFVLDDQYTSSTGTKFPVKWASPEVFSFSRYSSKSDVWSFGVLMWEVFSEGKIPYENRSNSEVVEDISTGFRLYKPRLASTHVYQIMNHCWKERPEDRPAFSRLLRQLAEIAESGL
The note with it: ITK, 10 µM.

Experiment [4] deals with T4, KinomeScan kinase panel (Homo sapiens, UniProt P21802).
T4 construct: purchased DiscoveRx (KinomeScan)
T4 sequence (P21802 22-821): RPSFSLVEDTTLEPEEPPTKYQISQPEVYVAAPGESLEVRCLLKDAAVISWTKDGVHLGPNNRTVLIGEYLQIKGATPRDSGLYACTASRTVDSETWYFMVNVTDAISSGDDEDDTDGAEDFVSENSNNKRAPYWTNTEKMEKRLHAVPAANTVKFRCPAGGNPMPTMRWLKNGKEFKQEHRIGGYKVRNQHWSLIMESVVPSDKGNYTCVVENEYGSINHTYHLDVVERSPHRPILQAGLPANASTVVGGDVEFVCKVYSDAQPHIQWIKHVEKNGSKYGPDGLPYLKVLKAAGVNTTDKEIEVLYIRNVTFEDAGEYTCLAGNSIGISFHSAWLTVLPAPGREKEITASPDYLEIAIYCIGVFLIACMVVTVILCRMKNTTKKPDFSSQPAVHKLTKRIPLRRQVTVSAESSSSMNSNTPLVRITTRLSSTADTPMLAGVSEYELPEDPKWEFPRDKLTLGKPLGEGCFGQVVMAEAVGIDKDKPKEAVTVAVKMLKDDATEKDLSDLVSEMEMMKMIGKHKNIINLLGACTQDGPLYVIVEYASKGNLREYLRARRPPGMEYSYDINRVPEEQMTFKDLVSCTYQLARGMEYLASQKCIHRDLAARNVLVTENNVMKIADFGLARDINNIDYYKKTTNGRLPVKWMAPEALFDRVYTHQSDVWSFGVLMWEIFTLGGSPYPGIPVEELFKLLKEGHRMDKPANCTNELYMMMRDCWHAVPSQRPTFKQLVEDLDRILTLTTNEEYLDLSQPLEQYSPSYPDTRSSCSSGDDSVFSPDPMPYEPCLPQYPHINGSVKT
The note with it: FGFR2, 10 µM; read-out: score (%).

In experiment [5] the target is T5, KinomeScan kinase panel (Homo sapiens, UniProt Q8NI60).
T5 construct: purchased DiscoveRx (KinomeScan)
T5 sequence (Q8NI60 163-647): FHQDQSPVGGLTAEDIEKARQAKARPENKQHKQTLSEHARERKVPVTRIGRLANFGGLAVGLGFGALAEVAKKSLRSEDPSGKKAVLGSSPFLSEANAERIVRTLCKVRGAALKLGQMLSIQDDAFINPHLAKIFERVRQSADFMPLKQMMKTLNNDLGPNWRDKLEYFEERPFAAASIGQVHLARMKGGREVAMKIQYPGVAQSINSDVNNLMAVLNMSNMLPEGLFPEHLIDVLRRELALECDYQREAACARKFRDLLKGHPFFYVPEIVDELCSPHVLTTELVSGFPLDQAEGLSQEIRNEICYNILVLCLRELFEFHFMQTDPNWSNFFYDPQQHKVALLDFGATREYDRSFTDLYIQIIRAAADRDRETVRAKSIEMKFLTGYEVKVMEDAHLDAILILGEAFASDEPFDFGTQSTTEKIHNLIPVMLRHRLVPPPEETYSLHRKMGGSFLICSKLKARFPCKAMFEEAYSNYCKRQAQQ
The note with it: ADCK3, 10 µM; read-out: score (%).

In experiment [6] the target is T6, KinomeScan kinase panel (Homo sapiens, UniProt Q86Z02).
T6 construct: purchased DiscoveRx (KinomeScan)
T6 sequence (Q86Z02 whole entry): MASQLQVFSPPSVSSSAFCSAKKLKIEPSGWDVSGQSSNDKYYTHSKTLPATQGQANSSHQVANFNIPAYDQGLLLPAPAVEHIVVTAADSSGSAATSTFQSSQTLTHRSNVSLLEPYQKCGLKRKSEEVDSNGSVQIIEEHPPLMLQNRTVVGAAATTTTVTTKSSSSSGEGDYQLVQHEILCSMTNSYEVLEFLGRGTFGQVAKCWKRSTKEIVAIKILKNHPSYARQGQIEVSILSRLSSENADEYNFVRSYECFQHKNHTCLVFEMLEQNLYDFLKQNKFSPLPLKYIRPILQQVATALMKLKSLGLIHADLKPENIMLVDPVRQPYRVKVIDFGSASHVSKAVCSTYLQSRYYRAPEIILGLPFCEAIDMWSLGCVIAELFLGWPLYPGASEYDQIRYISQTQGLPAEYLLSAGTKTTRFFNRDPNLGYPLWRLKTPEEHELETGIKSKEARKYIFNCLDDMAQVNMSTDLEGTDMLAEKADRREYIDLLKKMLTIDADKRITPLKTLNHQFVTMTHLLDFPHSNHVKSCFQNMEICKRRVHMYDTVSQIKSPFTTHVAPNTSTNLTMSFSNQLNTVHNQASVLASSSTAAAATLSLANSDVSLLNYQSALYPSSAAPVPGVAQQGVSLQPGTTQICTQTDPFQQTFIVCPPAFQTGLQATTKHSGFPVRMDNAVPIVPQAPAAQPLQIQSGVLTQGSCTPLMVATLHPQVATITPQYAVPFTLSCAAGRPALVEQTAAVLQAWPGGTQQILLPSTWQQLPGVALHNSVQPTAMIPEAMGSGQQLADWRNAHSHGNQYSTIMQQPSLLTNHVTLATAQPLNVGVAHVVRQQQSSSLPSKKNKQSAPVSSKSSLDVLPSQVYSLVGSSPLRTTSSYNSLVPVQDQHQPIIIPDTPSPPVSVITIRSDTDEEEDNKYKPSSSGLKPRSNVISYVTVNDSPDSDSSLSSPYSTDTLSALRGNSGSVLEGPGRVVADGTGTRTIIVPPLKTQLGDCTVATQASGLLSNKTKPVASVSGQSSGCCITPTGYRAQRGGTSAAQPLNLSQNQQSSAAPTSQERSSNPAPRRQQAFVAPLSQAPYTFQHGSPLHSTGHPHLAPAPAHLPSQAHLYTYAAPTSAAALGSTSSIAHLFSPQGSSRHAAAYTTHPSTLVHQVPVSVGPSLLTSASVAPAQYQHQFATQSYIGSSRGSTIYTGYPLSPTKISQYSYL
The note with it: HIPK1, 10 µM; read-out: score (%).

In experiment [7] the target is T7, KinomeScan kinase panel (Homo sapiens, UniProt P36888, K663Q).
T7 construct: purchased DiscoveRx (KinomeScan)
T7 sequence (P36888 27-993 K663Q): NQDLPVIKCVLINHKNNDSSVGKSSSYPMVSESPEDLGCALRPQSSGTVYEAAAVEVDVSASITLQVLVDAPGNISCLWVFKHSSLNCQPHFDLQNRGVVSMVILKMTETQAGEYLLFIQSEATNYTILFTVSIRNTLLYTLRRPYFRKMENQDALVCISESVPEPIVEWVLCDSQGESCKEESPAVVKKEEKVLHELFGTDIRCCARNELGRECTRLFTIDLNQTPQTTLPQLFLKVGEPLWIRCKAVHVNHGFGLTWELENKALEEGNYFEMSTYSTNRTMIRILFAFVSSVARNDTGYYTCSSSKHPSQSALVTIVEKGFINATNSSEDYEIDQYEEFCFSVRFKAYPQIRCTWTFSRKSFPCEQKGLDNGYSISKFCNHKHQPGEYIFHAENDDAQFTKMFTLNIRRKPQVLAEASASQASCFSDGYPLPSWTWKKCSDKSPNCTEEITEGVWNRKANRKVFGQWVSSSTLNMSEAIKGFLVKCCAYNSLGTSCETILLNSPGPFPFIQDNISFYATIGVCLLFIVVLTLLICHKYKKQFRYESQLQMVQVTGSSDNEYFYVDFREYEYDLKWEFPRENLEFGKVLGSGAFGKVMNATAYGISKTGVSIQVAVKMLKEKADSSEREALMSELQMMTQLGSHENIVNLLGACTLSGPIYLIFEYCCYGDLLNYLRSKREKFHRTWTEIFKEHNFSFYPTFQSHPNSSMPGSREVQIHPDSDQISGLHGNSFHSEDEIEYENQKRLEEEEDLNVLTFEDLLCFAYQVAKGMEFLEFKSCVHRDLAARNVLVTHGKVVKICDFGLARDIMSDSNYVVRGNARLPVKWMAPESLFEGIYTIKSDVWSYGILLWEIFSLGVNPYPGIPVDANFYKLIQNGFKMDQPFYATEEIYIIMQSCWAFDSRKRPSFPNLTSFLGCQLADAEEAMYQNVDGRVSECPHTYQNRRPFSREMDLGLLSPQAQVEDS
Particulars: FLT3(K663Q), 10 µM; read-out: score (%).

Experiment [8] addresses T8, KinomeScan kinase panel (Homo sapiens, UniProt P49759).
T8 construct: purchased DiscoveRx (KinomeScan)
Particulars: CLK1, 10 µM; read-out: score (%).

Experiment [9] addresses T9, KinomeScan kinase panel (Homo sapiens, UniProt Q9H4B4).
T9 construct: purchased DiscoveRx (KinomeScan)
Particulars: read-out: score (%).

Experiment [10] concerns the target T10, KinomeScan kinase panel (Homo sapiens, UniProt P16234).
T10 construct: purchased DiscoveRx (KinomeScan)
Particulars: PDGFRA, 10 µM; read-out: score (%).

The target of experiment [11] is T11, KinomeScan kinase panel (Homo sapiens, UniProt Q9NY57).
T11 construct: purchased DiscoveRx (KinomeScan)
T11 sequence (Q9NY57 whole entry): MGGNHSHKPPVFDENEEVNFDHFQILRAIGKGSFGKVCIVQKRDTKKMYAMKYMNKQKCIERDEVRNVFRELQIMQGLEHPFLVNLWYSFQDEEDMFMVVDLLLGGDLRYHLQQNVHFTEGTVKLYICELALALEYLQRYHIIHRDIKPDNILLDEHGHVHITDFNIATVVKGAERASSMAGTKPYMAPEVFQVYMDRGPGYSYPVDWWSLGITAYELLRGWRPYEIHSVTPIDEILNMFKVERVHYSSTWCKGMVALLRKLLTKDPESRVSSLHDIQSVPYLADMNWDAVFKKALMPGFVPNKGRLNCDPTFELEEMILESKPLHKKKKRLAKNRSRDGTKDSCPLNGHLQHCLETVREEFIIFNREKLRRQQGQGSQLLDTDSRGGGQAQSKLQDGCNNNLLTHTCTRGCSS
Particulars: kinase YANK2; 10 µM; read-out: score (%).

T10 sequence (P16234 24-1089): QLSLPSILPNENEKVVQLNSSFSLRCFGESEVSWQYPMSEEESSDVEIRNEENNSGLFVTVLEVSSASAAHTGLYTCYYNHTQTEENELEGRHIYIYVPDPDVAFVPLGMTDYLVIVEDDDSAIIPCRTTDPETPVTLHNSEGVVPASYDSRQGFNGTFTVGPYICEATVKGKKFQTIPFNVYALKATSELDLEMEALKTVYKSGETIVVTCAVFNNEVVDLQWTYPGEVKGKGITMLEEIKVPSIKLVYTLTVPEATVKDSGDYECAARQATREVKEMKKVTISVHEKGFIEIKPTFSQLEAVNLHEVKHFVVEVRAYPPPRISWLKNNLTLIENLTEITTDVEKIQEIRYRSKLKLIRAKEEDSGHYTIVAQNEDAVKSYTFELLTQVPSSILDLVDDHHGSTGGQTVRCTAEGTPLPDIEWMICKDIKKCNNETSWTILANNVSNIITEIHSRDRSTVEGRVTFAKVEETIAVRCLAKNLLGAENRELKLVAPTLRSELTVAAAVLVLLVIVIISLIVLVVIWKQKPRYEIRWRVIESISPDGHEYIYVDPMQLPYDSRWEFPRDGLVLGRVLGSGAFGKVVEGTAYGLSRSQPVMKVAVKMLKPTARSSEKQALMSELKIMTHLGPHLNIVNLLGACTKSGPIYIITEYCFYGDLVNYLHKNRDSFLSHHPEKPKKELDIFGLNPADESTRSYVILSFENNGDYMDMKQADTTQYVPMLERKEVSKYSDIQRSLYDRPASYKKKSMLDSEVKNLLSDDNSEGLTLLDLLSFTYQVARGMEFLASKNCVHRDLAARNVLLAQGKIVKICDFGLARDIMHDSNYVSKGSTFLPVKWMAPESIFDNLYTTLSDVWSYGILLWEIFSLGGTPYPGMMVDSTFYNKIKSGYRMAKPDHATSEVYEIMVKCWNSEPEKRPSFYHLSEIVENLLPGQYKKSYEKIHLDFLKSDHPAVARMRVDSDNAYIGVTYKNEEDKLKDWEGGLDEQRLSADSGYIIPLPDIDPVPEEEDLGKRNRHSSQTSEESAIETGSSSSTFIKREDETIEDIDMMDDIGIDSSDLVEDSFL
T8 sequence (P49759 whole entry): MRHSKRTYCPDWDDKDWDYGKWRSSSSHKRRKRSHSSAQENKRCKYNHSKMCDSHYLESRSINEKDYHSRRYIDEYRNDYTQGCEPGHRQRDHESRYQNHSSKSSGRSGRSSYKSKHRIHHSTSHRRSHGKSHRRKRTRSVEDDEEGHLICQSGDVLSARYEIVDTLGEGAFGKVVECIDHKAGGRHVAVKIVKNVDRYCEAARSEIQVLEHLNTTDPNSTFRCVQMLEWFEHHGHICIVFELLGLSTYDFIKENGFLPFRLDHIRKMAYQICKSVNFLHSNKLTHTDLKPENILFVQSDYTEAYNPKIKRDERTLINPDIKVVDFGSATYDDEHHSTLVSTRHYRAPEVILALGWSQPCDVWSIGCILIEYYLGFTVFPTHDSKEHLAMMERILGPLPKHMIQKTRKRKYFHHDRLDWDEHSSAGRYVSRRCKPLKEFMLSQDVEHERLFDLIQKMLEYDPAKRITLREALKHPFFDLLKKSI

On to `CCN1CCN(Cc2ccc(NC(=O)c3ccc(C)c(NC(=O)c4cncc(-c5cccs5)c4)c3)cc2C(F)(F)F)CC1` [ALW-II-41-27], for which the “score (%)” value on KinomeScan kinase panel [1] is on record as “nb (Hits values higher than 30% were considered negative (no binding: nb))”; on KinomeScan kinase panel [3], 8.6%. Also, the remaining binding at 10 µM at KinomeScan kinase panel [2] was 0%; on KinomeScan kinase panel [4], 4.3%; at KinomeScan kinase panel [5], above 30%; at KinomeScan kinase panel [6] it was above 30%; on KinomeScan kinase panel [7] it was 1%; on KinomeScan kinase panel [8], 1.1%. Further, the remaining binding at 10 µM on KinomeScan kinase panel [9] (PLK3, 10 µM) was above 30%; at KinomeScan kinase panel [10] it was 0%; on KinomeScan kinase panel [11], above 30%.

Consider `CCN1CCN(Cc2ccc(NC(=O)c3ccc(C)c(/C=C/c4cnc5[nH]ccc5c4Cl)c3)cc2C(F)(F)F)CC1` [HG-6-63-01, (E)-3-(2-(4-chloro-1H-pyrrolo[2,3-b]pyridin-5-yl)vinyl)-N-(4-((4-ethylpiperazin-1-yl)methyl)-3-(trifluoromethyl)phenyl)-4-methylbenzamide], for which the results for the “score (%)” value on KinomeScan kinase panel [1] and at KinomeScan kinase panel [3] were “nb (Hits values higher than 30% were considered negative (no binding: nb))” and 21%, respectively. Also, the remaining binding at 10 µM on KinomeScan kinase panel [2] is 0%; at KinomeScan kinase panel [4] it was 1.6%; on KinomeScan kinase panel [5], above 30%; at KinomeScan kinase panel [6] it was above 30%; on KinomeScan kinase panel [7] it was 0%; at KinomeScan kinase panel [8], 27%. Also, the remaining binding at 10 µM on KinomeScan kinase panel [9] (PLK3, 10 µM) is above 30%; at KinomeScan kinase panel [10], 0%; on KinomeScan kinase panel [11] it was above 30%.

With `CCN1CCN(Cc2ccc(NC(=O)c3ccc(C)c(C#Cc4cccnc4)c3)cc2C(F)(F)F)CC1` [XMD15-44], the “score (%)” value on KinomeScan kinase panel [1] and at KinomeScan kinase panel [3] was “nb (Hits values higher than 30% were considered negative (no binding: nb))” throughout. Further, the remaining binding at 10 µM at KinomeScan kinase panel [2] is 0%; on KinomeScan kinase panel [4], 0.5%; at KinomeScan kinase panel [5] it was above 30%; on KinomeScan kinase panel [6], above 30%; at KinomeScan kinase panel [7], 0%; on KinomeScan kinase panel [8], 3.9%. For the same compound, the remaining binding at 10 µM at KinomeScan kinase panel [9] (kinase PLK3, 10 µM) amounted to 90%; at KinomeScan kinase panel [10] it was 0%; on KinomeScan kinase panel [11], 100%.

These data come from article PMC4457528, “Identification of Novel Small Molecule Inhibitors of Oncogenic RET Kinase” (PLoS ONE, 2015).
